Reference: ChEMBL document CHEMBL1136538, “1,4-Dihydroxy-2,3-dioxatricyclo[8.4.0.0(4,9)]tetradecane and derivatives with in vitro activity against Plasmodium falciparum, Trypanasoma b brucei, Trypanasoma cruzi, and Leishmaniasis infantum” (Bioorg Med Chem Lett, 2003)

How the values were obtained:
Trypanosoma cruzi = assay: In vitro anti-protozoal parasite activity against Trypanosoma cruzi TC-1; assay type: functional, organism-based
MRC5 = assay: In vitro cytotoxicity against cell line MRC-5; assay type: functional, cell-based; settings: Homo sapiens
Leishmania infantum = assay: In vitro anti-protozoal parasite activity against Leishmania infantum L1 strain; assay type: functional, organism-based
Plasmodium falciparum = assay: In vitro anti-protozoal activity against Plasmodium falciparum Ghana; assay type: functional, organism-based
Trypanosoma brucei = assay: In vitro anti-protozoal parasite activity against Trypanosoma brucei TB-1; assay type: functional, organism-based

`O=C(O)CCC(=O)OC12CCCCC1C1CCCCC1(O)OO2` (stereo unspecified) showed an IC50 (Trypanosoma cruzi) of 13 µM, an IC50 (MRC5) of 13 µM and an IC50 (Leishmania infantum) of over 32 µM. For the same compound, the IC50 (Plasmodium falciparum) was 1 µM and the IC50 (Trypanosoma brucei) was 4 µM.
Compound `O=C(O)CCCC(=O)OC12CCCCC1C1CCCCC1(O)OO2` (stereo unspecified) has an IC50 (Trypanosoma cruzi) of 15 µM, an IC50 (MRC5) of over 32 µM and an IC50 (Leishmania infantum) of over 32 µM. It also gave an IC50 (Plasmodium falciparum) of 19 µM and an IC50 (Trypanosoma brucei) of 16 µM.
`CC1CCCC2C3CCCC(C)C3(O)OOC12O` (stereo unspecified) showed an IC50 (Trypanosoma cruzi) of over 32 µM, an IC50 (MRC5) of over 32 µM and an IC50 (Leishmania infantum) of over 32 µM. The IC50 (Plasmodium falciparum) was over 32 µM.
`OC12CCCCC1C1CCCCC1(O)OO2` (stereo unspecified) was tested, and the IC50 (Trypanosoma cruzi) was 24 µM, the IC50 (MRC5) was 10 µM and the IC50 (Leishmania infantum) was over 32 µM. For the same compound, the IC50 (Plasmodium falciparum) was 0.1 µM and the IC50 (Trypanosoma brucei) was 13 µM.
In the case of `COC12CCCCC1C1CCCCC1(O)OO2` (stereo unspecified), the IC50 (Trypanosoma cruzi) is reported as 8 µM, the IC50 (MRC5) is reported as 8 µM and the IC50 (Leishmania infantum) is reported as over 32 µM. The IC50 (Plasmodium falciparum) was 5 µM and the IC50 (Trypanosoma brucei) was 16 µM.
`O=C(O)CC(=O)OC12CCCCC1C1CCCCC1(O)OO2` (stereo unspecified) showed an IC50 (Trypanosoma cruzi) of over 32 µM, an IC50 (MRC5) of over 32 µM and an IC50 (Leishmania infantum) of over 32 µM. It also gave an IC50 (Plasmodium falciparum) of 6 µM and an IC50 (Trypanosoma brucei) of 10 µM.
`O=C(O)CCCCC(=O)OC12CCCCC1C1CCCCC1(O)OO2` (stereo unspecified) showed an IC50 (Trypanosoma cruzi) of 19 µM, an IC50 (MRC5) of over 32 µM and an IC50 (Leishmania infantum) of over 32 µM. The IC50 (Plasmodium falciparum) was over 32 µM and the IC50 (Trypanosoma brucei) was 17 µM.
With `CO[C@H]1O[C@@H]2O[C@@]3(C)CC[C@H]4[C@H](C)CC[C@@H]([C@H]1C)[C@@]24OO3` [ARTEMETHER] the IC50 (Plasmodium falciparum) was 0.025 µM.
Work on `Cc1ccc(C(=O)Nc2ccc(S(=O)(=O)O)c3cc(S(=O)(=O)O)cc(S(=O)(=O)O)c23)cc1NC(=O)c1cccc(NC(=O)Nc2cccc(C(=O)Nc3cc(C(=O)Nc4ccc(S(=O)(=O)O)c5cc(S(=O)(=O)O)cc(S(=O)(=O)O)c45)ccc3C)c2)c1` [SURAMIN HEXASODIUM] yielded an IC50 (Trypanosoma brucei) of 0.043 µM.
